In ChEMBL document CHEMBL1130461, “Polyclonal catalytic antibody for hetero-cycloaddition of hepta-1,3-diene with ethyl glyoxylate an approach to the synthesis of 2-nonulosonic acid analogs” (Bioorg Med Chem Lett, 1997):

Tests used:
[1] = Vmax in polyclonal antibody reactions; assay type: ADME
[2] = Michaelis-Menten constant in polyclonal antibody reactions; assay type: ADME

`C=C/C=C/CCOC(=O)CCC(=O)OCc1ccccc1` showed a Vmax [1] of 0.98 µM/min and a Km [2] of 96 µM.
